Test results: the supplement of paper PMC4932681
Counter-ions that a name gives are not always drawn.

What was measured:
[1] = tested on: ZR-75-1; assay: relative IC50 (midpoint of fitted logistic curve, plateau may be below 50% inhibition; CellTiter-Glo viability); higher = less potent; settings: 72 h
Summary of the method: (§1)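 Breast cancer cell lines and their resistant derivatives were seeded into 384-well plates holding FO2Baq library drugs at five concentrations spanning a 10 000-fold range. Resistant lines were in medium with 1 μM of the selecting drug. Cells were incubated 72 h at 37 °C, and CellTiter-Glo viability was read on a PHERAstar and normalised to vehicle-only and positive controls. Drug sensitivity score, relative IC50 (curve midpoint) and top-dose inhibition came from logistic dose–response fits (Breeze pipeline).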

[2] = tested on: BT-474; assay: as above; settings: 72 h
Summary of the method: as §1

[3] = tested on: T-47D Tam2; assay: as above; settings: 4-OH-tamoxifen in medium 1 µM; 72 h
Summary of the method: as §1

[4] = tested on: BT-474 Tam2; assay: as above; settings: 4-OH-tamoxifen in medium 1 µM; 72 h
Summary of the method: as §1

[5] = tested on: T-47D Tam1; assay: as above; settings: 4-OH-tamoxifen in medium 1 µM; 72 h
Summary of the method: as §1

[6] = tested on: MCF-7 Tam1; assay: as above; settings: 4-OH-tamoxifen in medium 1 µM; 72 h
Summary of the method: as §1

[7] = tested on: ZR-75-1 Tam2; assay: as above; settings: 4-OH-tamoxifen in medium 1 µM; 72 h
Summary of the method: as §1

[8] = tested on: MCF-7; assay: as above; settings: 72 h
Summary of the method: as §1

[9] = tested on: T-47D; assay: as above; settings: 72 h
Summary of the method: as §1

[10] = tested on: ZR-75-1 Tam1; assay: as above; settings: 4-OH-tamoxifen in medium 1 µM; 72 h
Summary of the method: as §1

[11] = tested on: BT-474 Tam1; assay: as above; settings: 4-OH-tamoxifen in medium 1 µM; 72 h
Summary of the method: as §1

[12] = tested on: ZR-75-1; assay: drug sensitivity score (DSS) (DSS (dimensionless)); higher = more sensitive; extreme values may be limits of the assay; settings: 72 h
Summary of the method: as §1

[13] = tested on: BT-474; assay: as above; settings: 72 h
Summary of the method: as §1

[14] = tested on: T-47D Tam2; assay: as above; settings: 4-OH-tamoxifen in medium 1 µM; 72 h
Summary of the method: as §1

[15] = tested on: BT-474 Tam2; assay: as above; settings: 4-OH-tamoxifen in medium 1 µM; 72 h
Summary of the method: as §1

[16] = tested on: T-47D Tam1; assay: as above; settings: 4-OH-tamoxifen in medium 1 µM; 72 h
Summary of the method: as §1

[17] = tested on: MCF-7 Tam1; assay: as above; settings: 4-OH-tamoxifen in medium 1 µM; 72 h
Summary of the method: as §1

[18] = tested on: ZR-75-1 Tam2; assay: as above; settings: 4-OH-tamoxifen in medium 1 µM; 72 h
Summary of the method: as §1

[19] = tested on: MCF-7; assay: as above; settings: 72 h
Summary of the method: as §1

[20] = tested on: T-47D; assay: as above; settings: 72 h
Summary of the method: as §1

[21] = tested on: ZR-75-1 Tam1; assay: as above; settings: 4-OH-tamoxifen in medium 1 µM; 72 h
Summary of the method: as §1

[22] = tested on: BT-474 Tam1; assay: as above; settings: 4-OH-tamoxifen in medium 1 µM; 72 h
Summary of the method: as §1

SMILES | relative IC50 ([2]; 4-OH-tamoxifen in medium 0 µM) [nM] | relative IC50 ([2]; 4-OH-tamoxifen in medium 1 µM) [nM] | relative IC50 [3] [nM] | relative IC50 [4] [nM] | relative IC50 [5] [nM] | relative IC50 [6] [nM] | relative IC50 ([8]; 4-OH-tamoxifen in medium 0 µM) [nM] | relative IC50 ([9]; 4-OH-tamoxifen in medium 1 µM) [nM] | relative IC50 [11] [nM] | relative IC50 ([8]; 4-OH-tamoxifen in medium 1 µM) [nM] | relative IC50 ([9]; 4-OH-tamoxifen in medium 0 µM) [nM] | relative IC50 ([1]; 4-OH-tamoxifen in medium 0 µM) [nM] | relative IC50 ([1]; 4-OH-tamoxifen in medium 1 µM) [nM] | relative IC50 [7] [nM] | relative IC50 [10] [nM] | drug sensitivity score ([12]; 4-OH-tamoxifen in medium 0 µM) | drug sensitivity score ([12]; 4-OH-tamoxifen in medium 1 µM) | drug sensitivity score ([13]; 4-OH-tamoxifen in medium 0 µM) | drug sensitivity score ([13]; 4-OH-tamoxifen in medium 1 µM) | drug sensitivity score [14] | drug sensitivity score [15] | drug sensitivity score [16] | drug sensitivity score [17] | drug sensitivity score [18] | drug sensitivity score ([19]; 4-OH-tamoxifen in medium 0 µM) | drug sensitivity score ([19]; 4-OH-tamoxifen in medium 1 µM) | drug sensitivity score ([20]; 4-OH-tamoxifen in medium 0 µM) | drug sensitivity score ([20]; 4-OH-tamoxifen in medium 1 µM) | drug sensitivity score [21] | drug sensitivity score [22]
CCOc1cc2ncc(C#N)c(Nc3ccc(OCc4ccccn4)c(Cl)c3)c2cc1NC(=O)/C=C/CN(C)C [Neratinib] | 9.18 | 6.18 | 218 | 3.76 | 97.6 | > 1000 | > 1000 | > 1000 | 4.18 |  |  | > 1000 | > 1000 | > 1000 | > 1000 | 0 | 0 | 20.8 | 25.6 | 2.11 | 28.7 | 3.53 | 0 | 0 | 0 | 2.07 | 0.25 | 0 | 0 | 28.3
COC(=O)C[C@](O)(CCCC(C)(C)O)C(=O)O[C@@H]1C(OC)=C[C@]23CCCN2CCc2cc4c(cc2[C@H]13)OCO4 [Omacetaxine (Homoharringtonine)] |  | 1890 | 419 | 1780 | 93.7 | 82.2 | 29 | 172 | 2990 | 16.7 | 138 | 37.2 | 46.5 | 92.2 | 84.4 | 19 | 15.2 | 6.72 | 6.25 | 10.7 | 6.34 | 16.4 | 16.2 | 17.8 | 25.1 | 26.1 | 17.4 | 11 | 13.8 | 4.82
O=C(O)C(=O)O.[NH-][C@@H]1CCCC[C@H]1[NH-].[Pt+2] [Oxaliplatin] | > 10000 | > 10000 | > 10000 | > 10000 | > 10000 | > 10000 | > 10000 | > 10000 | > 10000 | > 10000 | > 10000 | > 10000 | > 10000 | > 10000 | > 10000 | 0 | 0 | 0 | 0 | 0 | 0 | 0 | 0 | 0 | 0 | 0 | 0 | 0 | 0 | 0
Cc1ccc([N+](=O)[O-])cc1S(=O)(=O)N(C)/N=C/c1cnc2ccc(Br)cn12 [PIK-75 (HCl)] | 148 | 48.6 | 82.6 | 58.7 | 48.3 | 50.5 | 33.2 | 81.3 | 31.6 | 30.5 | 33.2 | 133 | 94.5 | 108 | 309 | 16.9 | 16.7 | 21.2 | 27.2 | 20.5 | 26.8 | 25.1 | 22.6 | 18.9 | 22.3 | 26.4 | 21.8 | 15.3 | 14.9 | 29.8
Nc1nc2[nH]cc(CCc3ccc(C(=O)N[C@@H](CCC(=O)O)C(=O)O)cc3)c2c(=O)[nH]1 [Pemetrexed] | > 10000 | > 10000 | > 10000 | > 10000 | > 10000 | > 10000 | > 10000 |  | > 10000 |  | > 10000 | > 10000 | > 10000 | > 10000 | > 10000 | 0 | 0 | 0 | 0 | 0 | 0 | 0 | 0 | 0 | 0 | 0.305 | 0 | 0 | 0 | 0

Further lines, with some results ahead:

relative IC50 ([2]; 4-OH-tamoxifen in medium 0 µM) [nM] | relative IC50 ([2]; 4-OH-tamoxifen in medium 1 µM) [nM] | relative IC50 [3] [nM] | relative IC50 [4] [nM] | relative IC50 [5] [nM] | relative IC50 [6] [nM] | relative IC50 ([8]; 4-OH-tamoxifen in medium 0 µM) [nM] | relative IC50 ([9]; 4-OH-tamoxifen in medium 1 µM) [nM] | relative IC50 [11] [nM] | relative IC50 ([8]; 4-OH-tamoxifen in medium 1 µM) [nM] | relative IC50 ([9]; 4-OH-tamoxifen in medium 0 µM) [nM] | SMILES | relative IC50 ([1]; 4-OH-tamoxifen in medium 0 µM) [nM] | relative IC50 ([1]; 4-OH-tamoxifen in medium 1 µM) [nM] | relative IC50 [7] [nM] | relative IC50 [10] [nM] | drug sensitivity score ([12]; 4-OH-tamoxifen in medium 0 µM) | drug sensitivity score ([12]; 4-OH-tamoxifen in medium 1 µM) | drug sensitivity score ([13]; 4-OH-tamoxifen in medium 0 µM) | drug sensitivity score ([13]; 4-OH-tamoxifen in medium 1 µM) | drug sensitivity score [14] | drug sensitivity score [15] | drug sensitivity score [16] | drug sensitivity score [17] | drug sensitivity score [18] | drug sensitivity score ([19]; 4-OH-tamoxifen in medium 0 µM) | drug sensitivity score ([19]; 4-OH-tamoxifen in medium 1 µM) | drug sensitivity score ([20]; 4-OH-tamoxifen in medium 0 µM) | drug sensitivity score ([20]; 4-OH-tamoxifen in medium 1 µM) | drug sensitivity score [21] | drug sensitivity score [22]
333 | 697 | 131 | 338 | 134 | 713 | 1420 | 543 | 203 | 1160 | 246 | COc1cccc2cc(-c3nc([C@H]4CC[C@H](C(=O)O)CC4)n4ncnc(N)c34)[nH]c12 [OSI-027] | 263 | 132 | 198 | 219 | 11 | 11 | 5.02 | 6.48 | 8.2 | 5.03 | 15.8 | 2.71 | 12.5 | 4.23 | 4.31 | 11.9 | 5.99 | 9.81 | 7.62
245 | 157 | 429 | 187 | 295 | 1970 | 161 | 3620 | 102 | 140 | 278 | O=C(Nc1cccnc1)N1CCC(Cc2cccc(Oc3ccc(C(F)(F)F)cn3)c2)CC1 [PF-3845] | 725 | 179 | 233 | 218 | 10.2 | 19.7 | 18.1 | 21.2 | 13.7 | 20.4 | 17.5 | 9.98 | 18.8 | 16.5 | 19.2 | 11.6 | 10.7 | 18.7 | 23.7
